Data taken from publication PMC6143625, “A high throughput screen for next-generation leads targeting malaria parasite transmission” (Nature Communications, 2018).

Experiments:
[1] = test system: P. falciparum stage V male gametocytes (male gamete formation); assay: P. falciparum dual gamete formation assay (Pf DGFA), male readout (exflagellation), 48 h carry-over format; type: cell-based, Plasmodium falciparum NF54; details: Plasmodium falciparum, 48 h incubation
[2] = test system: P. falciparum 3D7 asexual blood stages; assay: Whole-cell time extended asexual growth assay (pLDH); type: cell-based; details: Plasmodium falciparum, 72 h; for IC50: dose response retest, read-out: IC50 (µM) Asex stages; for inhibition at 2 µM: primary screen, read-out: %Inh Asex stages @2uM
Experimental: Asexual activity was assayed via Plasmodium lactate dehydrogenase activity (pLDH), a surrogate of asexual parasite growth. […] 2 µM artesunate and DMSO were used as the positive and negative controls, respectively. […] After plate mixing, NBT reduction was measured by absorbance at 650 nm using Envision (Perkin Elmer).

[3] = test system: P. falciparum stage V female gametocytes (female gamete formation); assay: P. falciparum dual gamete formation assay (Pf DGFA), female readout (Pfs25 expression), 48 h carry-over format; type: cell-based, Plasmodium falciparum NF54; details: Plasmodium falciparum, 48 h incubation
[4] = test system: HepG2 human cells; design: method as in http://dx.doi.org/10.6019/CHEMBL3507680; details: ref http://dx.doi.org/10.6019/CHEMBL3507680; cited from earlier work
[5] = primary screen, 2 uM, single replicate

SMILES	IC50 ([1]; 48 h, dose response retest of primary hits, read-out: Male IC50)	IC50 [2]	IC50 ([3]; 48 h, dose response retest of primary hits, read-out: Female IC50)	inhibition at 2 µM [1, 5]	inhibition at 2 µM [2]	inhibition at 2 µM [3, 5]	%Inh HepG2 @10uM [4]
COc1ccc(NC(=O)Cn2nc(C)c(C(C)=O)c2C)cc1 [DDD01027600]	1240 nM	0.298 µM	5560 nM	47.3%	73.1%	< 30%	2.67%
O=C(O)C1CC2(CCN(c3nccc4ccccc34)CC2)CN1 (stereo not shown) [DDD01246093]	–	3.51 µM	–	–	35.8%	–	9.49%
CCCn1ncc(-c2ccnc(NC3CC(C)(C)NC(C)(C)C3)n2)c1C [DDD01246448]	–	4.53 µM	–	–	41.5%	–	80.08%
COc1ccnc(CN2CCCC(CCc3ccc(F)cc3)C2)c1OC (stereo not shown) [DDD01246654]	–	2.25 µM	–	–	51%	–	2.04%
CCN1CCN(C[C@@H]2CN(c3ncc(Cl)cc3F)C[C@@H]2CO)CC1 [DDD01246828]	–	1.4 µM	–	–	82.5%	–	-10.90%
CCn1cc(CN2CCN(Cc3cccc(OC)c3)C(=O)C2)cc1C#N [DDD01247460]	–	1.46 µM	–	–	76.2%	–	-1.17%
COc1ccccc1OCCCc1cccc(C#N)n1 [DDD01247630]	–	6.32 µM	–	–	36%	–	-1.85%
CC(C)c1cc(CN(C)C(=O)C(C)N2CCc3ccccc3C2)no1 (stereo not shown) [DDD01248554]	–	9.68 µM	–	–	36%	–	34.35%
CCc1[nH]c2c(CNc3cc(C)nc(NC)n3)cc(C)cc2c1C [DDD01250162]	–	1.2 µM	–	–	55.3%	–	98.31%
Cc1cc2nc(-c3cn(C4CCNCC4)nn3)[nH]c2cc1C [DDD01250700]	–	2.49 µM	–	–	60.9%	–	-2.26%
CCc1[nH]c2c(CNc3nc(C)cc(NC)n3)cc(C)cc2c1C [DDD01251782]	–	1.78 µM	–	–	97.5%	–	99.91%
CCOc1cccc(CN2CCCC(Nc3ccc(F)cc3)C2)c1O (stereo not shown) [DDD01252745]	–	3.07 µM	–	–	42.7%	–	-6.06%
Cc1nc(NCCSc2ccccn2)c2c(C)noc2n1 [DDD01253053]	–	4.44 µM	–	–	38.4%	–	-4.96%
NCC1Cc2cc(-c3nccc(N4CCC(O)CC4)n3)cc(F)c2O1 (stereo not shown) [DDD01254054]	–	4.81 µM	–	–	76.3%	–	6.33%
CCCc1cncnc1N1CCC(NCc2cc3ccccc3[nH]2)CC1 [DDD01254125]	–	2.43 µM	–	–	35.4%	–	8.09%
CNc1nc(C)cc(NC2CCCN(C3Cc4ccccc4C3)C2)n1 (stereo not shown) [DDD01254555]	–	1.97 µM	–	–	91.2%	–	14.91%
Cc1noc(C)c1CN(C)c1nc(C2CCCC2)nc2c1cnn2C [DDD01254835]	–	2.56 µM	–	–	57.1%	–	9.62%
CNC(=O)c1cn2cc(-c3ccccc3Cl)n(CC=C(C)C)c(=O)c2n1 [DDD01255495]	–	6.64 µM	–	–	43.8%	–	35.09%
NCC(=O)N1CCCC1c1ccc(C(=O)NCc2ccoc2)s1 (stereo not shown) [DDD01257217]	–	2.73 µM	–	–	34.1%	–	-2.34%
CSCCNC(=O)c1ccc(OC2CCN(CC(C)(C)C)CC2)c(Cl)c1 [DDD01257510]	–	5.38 µM	–	–	38.4%	–	-7.80%
COc1cccc(CN2CCCC(Nc3cccc(F)c3)C2)c1O (stereo not shown) [DDD01257695]	–	2.56 µM	–	–	55.2%	–	-4.92%
CCc1c(C)nc2cc(C3CCN(Cc4ccccc4F)C3)nn2c1O (stereo not shown) [DDD01270117]	–	6.27 µM	–	–	43.5%	–	-2.56%
Cc1nc2ccccc2nc1CN1CCCC1Cn1cccn1 (stereo not shown) [DDD01301355]	–	8.56 µM	–	–	31%	–	20.57%
CC(C)c1cc(NC(=O)c2ccc(C(=O)NC(C)(C)C)cc2)[nH]n1 [DDD01301645]	–	4.02 µM	–	–	33.2%	–	-4.05%
Cc1ccc(Cl)cc1N1CCC(CNC(=O)CCn2ccnc2)C1 (stereo not shown) [DDD01302767]	–	3.83 µM	–	–	33.8%	–	-10.10%
CC(C)c1nn(C)c(Cl)c1CNCC(O)c1cccc(F)c1.Cl (stereo not shown) [DDD01304823]	–	3.62 µM	–	–	34.2%	–	-10.30%
O=C1CCCCN1c1cccc(CNC2CCCC2)c1 [DDD01305031]	–	6.03 µM	–	–	31.2%	–	-17.90%

Further molecules by falling IC50 [2], results first:

IC50 ([1]; 48 h, dose response retest of primary hits, read-out: Male IC50)	IC50 [2]	IC50 ([3]; 48 h, dose response retest of primary hits, read-out: Female IC50)	SMILES	inhibition at 2 µM [1, 5]	inhibition at 2 µM [2]	inhibition at 2 µM [3, 5]	%Inh HepG2 @10uM [4]
–	8.09 µM	–	N#Cc1cccc(N2CCCC(CO)(CCOc3ccccc3)C2)n1 (stereo not shown) [DDD01247086]	–	32%	–	8.55%
–	7.81 µM	–	Cc1cc(C)n(C2CN(CC(O)c3ccc4c(c3)OCO4)C2)n1 (stereo not shown) [DDD01303662]	–	40.2%	–	-2.16%
–	6.7 µM	–	CCC(C)(C)NC(=O)CN(C)C(c1cccc(F)c1)c1ccccn1 (stereo not shown) [DDD01301778]	–	30.8%	–	0.64%
–	5.78 µM	–	CCCc1nc(N(C)CCN2CCCCCC2)c2cnn(C)c2n1 [DDD01250696]	–	32.1%	–	-11.00%
–	5.73 µM	–	CN(Cc1ncc(C(C)(C)C)o1)CC1CCCN1c1cccnn1 (stereo not shown) [DDD01301524]	–	31.2%	–	23.44%
–	5.59 µM	–	COc1cccc(OC)c1CN1CC(=O)N(c2ccc(C)cc2)CC1C (stereo not shown) [DDD01252418]	–	31.8%	–	1.44%
–	3.93 µM	–	Cc1nc(CN2CCCC(N(C)Cc3c(C)noc3C)C2)no1 (stereo not shown) [DDD01304956]	–	31.2%	–	10.61%
–	3.82 µM	–	Cc1cccc2[nH]c(-c3cn(C4CCNCC4)nn3)nc12 [DDD01250141]	–	34.6%	–	-3.11%
–	3.44 µM	–	Cc1cccnc1[C@H](C)Nc1nc(-c2cccnc2)nc2c1CNC2 [DDD01248607]	–	50%	–	-8.07%
–	3.35 µM	–	CC(C)CN1CCCC1c1ccc(C(=O)Nc2cccnc2)s1 (stereo not shown) [DDD01247321]	–	34.5%	–	0.07%
–	3.31 µM	–	CCn1cc(CN2CCN(Cc3cc(C)cc(C)c3)C(=O)C2)cc1C#N [DDD01246382]	–	37.3%	–	15.63%
–	3.29 µM	–	Cc1cnc(C)c(N2CCN(CCCc3ccncc3)CC2)n1 [DDD01256723]	–	48%	–	6.37%
–	2.95 µM	–	CC1(c2ccccc2)CCCN(Cc2cncn2C2CCCC2)C1 (stereo not shown) [DDD01246491]	–	39.7%	–	-13.60%
–	2.86 µM	–	CCNC(=O)C(C)NC(=O)c1cnc(-c2ccc(C)cc2C)s1 (stereo not shown) [DDD01300473]	–	37%	–	1.57%
–	2.83 µM	–	CCC1CN(C(=O)c2ccc(Cl)cc2O)CCN1C(C)C (stereo not shown) [DDD01258121]	–	48.6%	–	-6.93%
–	2.69 µM	–	COc1ccc(CNCC2CCN(CC(C)O)CC2)c2ccccc12 (stereo not shown) [DDD01302860]	–	39.2%	–	29.84%
–	2.61 µM	–	CNc1cc(C)nc(N2Cc3cnn(Cc4ccc(F)cc4)c3C2)n1 [DDD01252874]	–	45.8%	–	11.36%
–	2.46 µM	–	O=C(NCc1cnn2cccnc12)c1cccc(CC2CCNCC2)c1 [DDD01252275]	–	33%	–	5.06%
–	2.44 µM	–	Cc1nc[nH]c1CN(C)CC1CCCN(CCc2ccc(Cl)cc2)C1 (stereo not shown) [DDD01257555]	–	66.5%	–	20.49%
–	2.13 µM	–	Cc1ccc2[nH]c(-c3cn(C4CCNCC4)nn3)nc2c1C [DDD01246711]	–	63.9%	–	-3.44%
–	1.97 µM	–	Cc1nc(-c2cc(Cl)cc3c2OC(CN)C3)c[nH]1 (stereo not shown) [DDD01251343]	–	52.6%	–	11.09%
–	1.91 µM	–	COc1cccc(CN(C)Cc2[nH]c3ccccc3c2C)c1O [DDD01247848]	–	91.2%	–	1.38%
–	1.79 µM	–	CNc1cc(C)nc(NCc2cc(C)cc3c(C)c(C)[nH]c23)n1 [DDD01248198]	–	69.2%	–	67.15%
–	1.79 µM	–	CN(Cc1cccc(O)c1)CC1CCCN(CCc2ccc(Cl)cc2)C1 (stereo not shown) [DDD01257948]	–	92.9%	–	10.17%
–	1.71 µM	–	Cc1cccnc1C(Nc1nccc(C2CCCC2)n1)C1CC1 (stereo not shown) [DDD01252324]	–	73.4%	–	0.36%
–	1.4 µM	–	CC(C)Cc1ncc2c(n1)CN(c1nccc(NC(C)C)n1)C2 [DDD01249567]	–	92.8%	–	2.52%
–	1.35 µM	–	Cc1cnccc1NCCNC1CCN(CC(C)C)CC1 [DDD01251125]	–	98.4%	–	2.02%
–	1.27 µM	–	Cc1cc(C)n(C2CN(CC(O)c3cc(F)ccc3F)C2)n1 (stereo not shown) [DDD01298957]	–	74.5%	–	6.16%
